From ChEMBL document CHEMBL1250423, “Terpioside B, a difucosyl GSL from the marine sponge Terpios sp. is a potent inhibitor of NO release” (Bioorg Med Chem, 2010) come the findings set out here.

The target in this assay is T1, Nitric oxide synthase, inducible (Mus musculus) (UniProt P29477).
T1 sequence (whole entry): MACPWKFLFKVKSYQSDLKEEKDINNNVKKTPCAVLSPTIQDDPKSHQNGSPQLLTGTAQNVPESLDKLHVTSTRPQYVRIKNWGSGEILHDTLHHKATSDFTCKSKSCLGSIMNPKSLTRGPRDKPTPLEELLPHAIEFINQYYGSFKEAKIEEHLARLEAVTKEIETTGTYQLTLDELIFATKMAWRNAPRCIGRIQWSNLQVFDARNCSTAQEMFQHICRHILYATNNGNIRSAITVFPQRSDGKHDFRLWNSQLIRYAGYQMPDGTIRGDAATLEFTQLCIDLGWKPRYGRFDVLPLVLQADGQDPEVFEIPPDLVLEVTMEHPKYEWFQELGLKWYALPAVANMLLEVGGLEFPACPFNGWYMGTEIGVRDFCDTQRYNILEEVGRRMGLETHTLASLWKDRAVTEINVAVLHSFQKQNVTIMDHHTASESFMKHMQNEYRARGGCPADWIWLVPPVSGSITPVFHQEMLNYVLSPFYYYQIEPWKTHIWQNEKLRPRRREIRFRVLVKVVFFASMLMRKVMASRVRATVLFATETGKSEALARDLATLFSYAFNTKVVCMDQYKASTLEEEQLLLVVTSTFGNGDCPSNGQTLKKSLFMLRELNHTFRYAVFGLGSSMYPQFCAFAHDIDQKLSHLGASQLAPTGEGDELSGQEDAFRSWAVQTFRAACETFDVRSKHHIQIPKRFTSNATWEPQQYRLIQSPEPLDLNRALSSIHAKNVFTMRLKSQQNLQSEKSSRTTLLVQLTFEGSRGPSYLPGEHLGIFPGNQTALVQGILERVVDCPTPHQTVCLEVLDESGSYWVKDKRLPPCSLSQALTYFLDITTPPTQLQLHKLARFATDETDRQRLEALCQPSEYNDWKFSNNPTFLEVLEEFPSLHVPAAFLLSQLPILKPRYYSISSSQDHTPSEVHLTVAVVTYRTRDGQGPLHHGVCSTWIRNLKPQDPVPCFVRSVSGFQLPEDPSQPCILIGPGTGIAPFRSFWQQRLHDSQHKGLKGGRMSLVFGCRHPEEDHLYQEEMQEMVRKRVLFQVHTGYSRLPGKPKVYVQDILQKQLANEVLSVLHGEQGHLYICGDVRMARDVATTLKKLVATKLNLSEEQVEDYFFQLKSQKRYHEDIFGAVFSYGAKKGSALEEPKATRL
Nature of the assay: Inhibition of iNOS in mouse J774.2 cells assessed as reduction of LPS-induced nitric oxide production at 1 to 10 uM after 24 hrs by Griess reaction. The class given is cell-based. On the technique in general: The Griess reaction detects nitrite, a stable product of nitric oxide.

Activity calls are given as the source filed them. No cut-off for these calls is given here.

`CCCCCCCCCCCCCCCCCCCCCC[C@@H](O)C(=O)N[C@@H](CO[C@@H]1O[C@H](CO)[C@@H](O)[C@H](O[C@@H]2O[C@H]([C@H](C)O)[C@@H](O)[C@@H]2O)[C@H]1O)[C@H](O)[C@H](O)CCCCCCCCCCCC(C)CC` (stereo partly specified): the inhibition entry is “Active”.
